Test results published in publication PMC9683047, “Design, synthesis and biological evaluation of 4-aminoquinoline derivatives as receptor-interacting protein kinase 2 (RIPK2) inhibitors” (Journal of Enzyme Inhibition and Medicinal Chemistry, 2022).

Key:
RIPK2 [1] = target: T1, RIPK2 (Homo sapiens, UniProt O43353); assay: RIPK2 kinase inhibition assay (ADP-Glo); format: biochemical; settings: mean ± SD from two separate experiments
T1 construct: purchased Promega
Method: RIPK2 kinase activity was analysed using the ADP-Glo™ Assay Kit (RIPK2 Kinase Enzyme System, Promega, USA). Reactions were performed according to the instructions. Specific signal was calculated by subtracting values in the wells without protein and inhibitor from the values in the test wells.

RIPK2 [2] = target: T1, RIPK2; assay: Lipophilic ligand efficiency (LipE); settings: LipE = pIC50 − ClogP
[3] = system: MDP-induced TNF-α secretion in Raw264.7; assay: TNF-α secretion in MDP-induced Raw264.7 (ELISA); format: cell-based, mouse; settings: Raw264.7, compounds 1 h then L18-MDP 20 µg/mL 24 h, series concentration
Method: Raw 264.7 was cultured in DMEM containing 10% (w/v) foetal bovine serum (FBS). Cell were seeded at a density of 1 × 10^5 cells/well in a 48 well plate overnight, then cells were treated with different concentrations of compounds for1h, following by stimulated with L18-MDP (20 µg/mL, Invivogen) for 24 h. The Cell supernatants were harvested for enzyme-linked immunosorbent assay (ELISA).
TNFα commercial ELISA kits (DAKEWE) were used to detect TNFα in cell culture supernatants according to the manufacturer’s instructions. The concentration of cytokines was determined using multiwell spectrophotometer (SpetraMAX PLUS, Molecular Devices).

RIPK1 = target: T2, RIPK1 (Homo sapiens, UniProt Q13546); assay: RIPK1 inhibition rate at 1 µM; format: biochemical
T2 sequence (Q13546 1-671): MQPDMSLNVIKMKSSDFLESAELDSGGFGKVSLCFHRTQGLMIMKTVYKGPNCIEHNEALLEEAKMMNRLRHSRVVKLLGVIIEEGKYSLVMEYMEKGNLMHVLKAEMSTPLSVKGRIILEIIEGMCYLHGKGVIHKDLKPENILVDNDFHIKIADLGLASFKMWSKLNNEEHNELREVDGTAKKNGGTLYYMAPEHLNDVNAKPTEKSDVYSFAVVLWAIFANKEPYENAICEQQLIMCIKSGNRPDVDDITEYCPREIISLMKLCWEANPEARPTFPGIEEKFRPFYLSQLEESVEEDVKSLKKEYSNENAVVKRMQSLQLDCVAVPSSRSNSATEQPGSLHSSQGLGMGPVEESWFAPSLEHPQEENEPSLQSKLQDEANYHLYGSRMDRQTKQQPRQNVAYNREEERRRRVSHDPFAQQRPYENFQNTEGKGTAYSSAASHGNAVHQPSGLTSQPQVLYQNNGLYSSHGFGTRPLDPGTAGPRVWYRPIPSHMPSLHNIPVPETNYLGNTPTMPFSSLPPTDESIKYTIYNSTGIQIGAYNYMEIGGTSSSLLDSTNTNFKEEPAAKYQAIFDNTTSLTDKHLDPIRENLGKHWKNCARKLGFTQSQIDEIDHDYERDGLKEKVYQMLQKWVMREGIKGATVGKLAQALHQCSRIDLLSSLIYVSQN
Method: Table 4. Selectivity, ClogP and LipE of compound 14, 15, 21, 32, 36. | column: RIPK1 IR@1µM (%)

AO oxidase = target: T3, AO oxidase (Homo sapiens, UniProt Q06278); assay: AO oxidative metabolism in human liver cytosol; format: in vitro ADME; settings: human liver cytosol incubation; inhibitors raloxifene and menadione
T3 construct: could undergo mono oxidative metabolism in the human liver cytosol incubation system; from tissue; host or cells: human liver cytosol
T3 sequence (Q06278 whole entry): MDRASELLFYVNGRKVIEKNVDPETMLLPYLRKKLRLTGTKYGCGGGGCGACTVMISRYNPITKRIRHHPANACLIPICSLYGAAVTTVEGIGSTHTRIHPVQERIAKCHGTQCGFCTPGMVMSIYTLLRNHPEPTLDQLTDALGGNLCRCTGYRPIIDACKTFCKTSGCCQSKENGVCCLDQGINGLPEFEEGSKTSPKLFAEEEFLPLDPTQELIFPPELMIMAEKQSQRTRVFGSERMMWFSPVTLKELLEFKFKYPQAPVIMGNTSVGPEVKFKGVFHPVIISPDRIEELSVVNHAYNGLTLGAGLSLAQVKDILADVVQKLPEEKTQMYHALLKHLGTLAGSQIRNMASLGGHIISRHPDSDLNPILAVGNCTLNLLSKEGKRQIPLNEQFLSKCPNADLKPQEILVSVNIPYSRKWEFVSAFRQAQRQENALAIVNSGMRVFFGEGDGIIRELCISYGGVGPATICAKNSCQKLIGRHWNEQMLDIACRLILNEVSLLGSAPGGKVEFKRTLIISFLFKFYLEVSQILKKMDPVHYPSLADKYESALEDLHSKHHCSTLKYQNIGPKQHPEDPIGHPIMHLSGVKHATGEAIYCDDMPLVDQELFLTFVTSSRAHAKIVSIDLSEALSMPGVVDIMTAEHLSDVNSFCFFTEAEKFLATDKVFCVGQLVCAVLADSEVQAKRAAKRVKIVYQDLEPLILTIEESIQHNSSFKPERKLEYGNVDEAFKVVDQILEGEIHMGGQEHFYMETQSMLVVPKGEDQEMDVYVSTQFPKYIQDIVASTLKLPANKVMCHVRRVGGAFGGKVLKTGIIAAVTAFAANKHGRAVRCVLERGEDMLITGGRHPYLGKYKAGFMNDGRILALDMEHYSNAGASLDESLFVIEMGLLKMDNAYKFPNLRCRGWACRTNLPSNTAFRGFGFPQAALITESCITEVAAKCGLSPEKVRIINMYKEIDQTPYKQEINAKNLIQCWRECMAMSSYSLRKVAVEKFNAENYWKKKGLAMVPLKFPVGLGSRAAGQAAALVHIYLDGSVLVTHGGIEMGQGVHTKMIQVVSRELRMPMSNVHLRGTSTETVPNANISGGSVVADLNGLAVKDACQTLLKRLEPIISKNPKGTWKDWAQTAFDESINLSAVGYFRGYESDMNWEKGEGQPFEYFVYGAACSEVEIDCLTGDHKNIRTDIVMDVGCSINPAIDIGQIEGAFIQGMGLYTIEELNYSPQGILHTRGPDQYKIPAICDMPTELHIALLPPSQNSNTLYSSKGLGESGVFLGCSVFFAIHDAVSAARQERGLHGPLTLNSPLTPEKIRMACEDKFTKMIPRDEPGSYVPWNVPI
Method: However, we have done experiment on AO oxidative metabolism of compound 14 and P5. Both compound 14 and P5 could undergo mono oxidative metabolism in the human liver cytosol incubation system.

T1 sequence (O43353 whole entry): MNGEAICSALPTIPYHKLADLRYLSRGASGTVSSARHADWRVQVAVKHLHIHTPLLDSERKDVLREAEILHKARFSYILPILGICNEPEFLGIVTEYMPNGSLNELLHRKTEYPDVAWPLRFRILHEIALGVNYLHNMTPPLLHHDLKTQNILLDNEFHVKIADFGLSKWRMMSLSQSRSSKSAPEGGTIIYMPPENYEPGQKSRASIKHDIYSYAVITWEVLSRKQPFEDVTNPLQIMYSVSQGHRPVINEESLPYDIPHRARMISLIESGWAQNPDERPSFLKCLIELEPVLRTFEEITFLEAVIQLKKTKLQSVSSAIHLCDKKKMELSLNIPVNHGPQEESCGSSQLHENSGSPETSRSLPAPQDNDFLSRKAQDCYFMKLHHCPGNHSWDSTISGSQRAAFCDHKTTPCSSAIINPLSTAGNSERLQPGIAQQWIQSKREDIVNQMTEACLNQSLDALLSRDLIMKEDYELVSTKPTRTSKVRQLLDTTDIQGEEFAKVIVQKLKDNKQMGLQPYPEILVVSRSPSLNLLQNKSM

SMILES: c1cncc(-c2ccc3nccc(Nc4ccc5scnc5c4)c3c2)c1 [Compound 15, N-(6-(pyridin-3-yl)quinolin-4-yl)benzo[d]thiazol-5-amine]
- IC50 (RIPK2 [1]): 6 ± 1.5 nM
- LipE (RIPK2 [2]): 4.27
- inhibition of MDP-induced TNF-α secretion [3]: almost no inhibition
- RIPK1 IR@1µM (%) (RIPK1): <1%

SMILES: CC(C)(C)S(=O)(=O)c1cc2c(Nc3ccc4scnc4c3)ncnc2cc1OCCO [Compound P5, reference compound]
- IC50 (RIPK2 [1]): 2.6 ± 1.2 nM
- AO oxidase substrate (AO oxidase): metabolic substrates of AO oxidase
- LipE (RIPK2 [2]): 6.70
